From ChEMBL document CHEMBL5661983, “The selective anaplastic lymphoma receptor tyrosine kinase inhibitor ASP3026 induces tumor regression and prolongs survival in non-small cell lung cancer model mice” (Mol Cancer Ther, 2014)

Legend:
[1] = tested on: NCI-H2228; experiment: Antiproliferative activity against human NCI-H2228 cell spheroids assessed as reduction in cell growth measured after 5 days by celltiter-glo luminescent cell viability assay; format: functional, cell-based; details: NCI-H2228, 120 h
[2] = target: T1, ALK tyrosine kinase receptor (Homo sapiens, UniProt Q9UM73); experiment: Inhibition of ALK phosphorylation in human NCI-H2228 cells assessed as phosphorylated ALK level at 100 nmol/L measured after 4 hrs by Western blot analysis relative to control; format: cell-based; parameters: scale not given: the % may be the effect or the level left
[3] = target: T1, ALK tyrosine kinase receptor; experiment: Inhibition of ALK phosphorylation in human NCI-H2228 cells assessed as phosphorylated ALK level at 1000 nmol/L measured after 4 hrs by Western blot analysis relative to control; format: cell-based; parameters: scale not given: the % may be the effect or the level left
[4] = target: T1, ALK tyrosine kinase receptor; experiment: Inhibition of ALK in human NCI-H2228 cells assessed as reduction in AKT phosphorylation by measuring phosphorylated AKT level at 10 nmol/L measured after 4 hrs by Western blot analysis relative to control; format: cell-based; parameters: scale not given: the % may be the effect or the level left
[5] = target: T1, ALK tyrosine kinase receptor; experiment: Inhibition of ALK in human NCI-H2228 cells assessed as reduction in STAT3 phosphorylation by measuring phosphorylated STAT3 level at 100 nmol/L measured after 4 hrs by Western blot analysis relative to control; format: cell-based; parameters: scale not given: the % may be the effect or the level left
[6] = target: ALK tyrosine kinase receptor (Homo sapiens, UniProt Q9UM73, R1275Q)
[7] = target: NPM/ALK (Nucleophosmin/ALK tyrosine kinase receptor) (Homo sapiens, UniProt Q9UM73)
[8] = target: Hepatocyte growth factor receptor (Homo sapiens, UniProt P08581); experiment: Inhibition of human N-terminal GST-fused MET cytoplasmic domain ([956 to 1390(end) residues) expressed in baculovirus expression system using Srctide as substrate measured after 1 hr by off-chip mobility shift assay relative to control
[9] = tested on: NCI-H2228; experiment: Antitumor activity against human NCI-H2228 cells xenografted in NOD.CB17-Prkdcscid/J mouse assessed as tumor regression at 30 mg/kg, po administered once daily for 2 weeks relative to control; format: functional
[10] = Toxicity in human NCI-H2228 cell xenografted NOD.CB17-Prkdcscid/J mouse assessed as change in body weight at 100 mg/kg, po administered twice daily for 14 days; format: organism-based; details: in vivo, 336 h, time 14 day
[11] = Cmax in human NCI-H2228 cell xenografted NOD.CB17-Prkdcscid/J mouse plasma at 1 mg/kg/day for 5 days by HPLC-MS analysis; format: ADME, organism-based; details: route po, time 5 day
[12] = Cmax in human NCI-H2228 cell xenografted NOD.CB17-Prkdcscid/J mouse plasma at 3 mg/kg/day for 5 days by HPLC-MS analysis; format: ADME, organism-based; details: route po, time 5 day
[13] = Tmax in human NCI-H2228 cell xenografted NOD.CB17-Prkdcscid/J mouse plasma at 1 mg/kg/day for 5 days by HPLC-MS analysis; format: ADME, organism-based; details: route po, time 5 day
[14] = Tmax in human NCI-H2228 cell xenografted NOD.CB17-Prkdcscid/J mouse plasma at 3 mg/kg/day for 5 days by HPLC-MS analysis; format: ADME, organism-based; details: route po, time 5 day
[15] = Tmax in human NCI-H2228 cell xenografted NOD.CB17-Prkdcscid/J mouse plasma at 10 mg/kg/day for 5 days by HPLC-MS analysis; format: ADME, organism-based; details: route po, time 5 day
[16] = AUC (0 to 24 hrs) in human NCI-H2228 cell xenografted NOD.CB17-Prkdcscid/J mouse plasma at 10 mg/kg/day for 5 days by HPLC-MS analysis; format: ADME, organism-based; details: route po, time 5 day
[17] = Cmax in human NCI-H2228 cell xenografted NOD.CB17-Prkdcscid/J mouse tumor at 10 mg/kg/day for 5 days by HPLC-MS analysis; format: ADME, organism-based, Neoplasm; details: route po, time 5 day
[18] = Tmax in human NCI-H2228 cell xenografted NOD.CB17-Prkdcscid/J mouse tumor at 10 mg/kg/day for 5 days by HPLC-MS analysis; format: ADME, organism-based, Neoplasm; details: route po, time 5 day
[19] = AUC (0 to 24 hrs) in human NCI-H2228 cell xenografted NOD.CB17-Prkdcscid/J mouse tumor at 3 mg/kg/day for 5 days by HPLC-MS analysis; format: ADME, organism-based, Neoplasm; details: in vivo, po, 120 h, time 5 day
[20] = Ratio of Cmax in human NCI-H2228 cell xenografted NOD.CB17-Prkdcscid/J mouse tumor to plasma at 1 mg/kg/day for 5 days by HPLC-MS analysis; format: ADME, organism-based; details: tumor and plasma, route po, time 5 day
[21] = Ratio of Cmax in human NCI-H2228 cell xenografted NOD.CB17-Prkdcscid/J mouse tumor to plasma at 10 mg/kg/day for 5 days by HPLC-MS analysis; format: ADME, organism-based; details: tumor and plasma, route po, time 5 day
[22] = Toxicity in human NCI-H2228 cell xenografted NOD.CB17-Prkdcscid/J mouse assessed as change in body weight at 10 mg/kg, po administered once daily for 5 days in presence of paclitaxel; format: organism-based; details: in vivo, 120 h, time 5 day
[23] = tested on: NCI-H2228-Luc; experiment: Antitumor activity against human NCI-H2228-Luc cells intrapleurally xenografted in NOD.CB17-Prkdcscid/J mouse assessed as median survival time at 10 mg/kg, po administered once daily for 7 weeks starting from 14 days post-cell inoculation measured up to 90 days (reference value: 39 day); format: functional; details: time 90 day
[24] = target: EML4-ALK (Homo sapiens, UniProt Q9UM73); format: cell-based, BaF3
Description: Inhibition of EML4-ALK (unknown origin) transformed in mouse BaF3 cells by HTRF assay

[25] = Selectivity ratio of IC50 for EML4-ALK L1196M mutant (unknown origin) transformed in mouse BaF3 cells to IC50 for EML4-ALK (unknown origin) transformed in mouse BaF3 cells; parameters: species or system Homo sapiens; details: condition non-small cell lung carcinoma
[26] = target: Activated CDC42 kinase 1 (Homo sapiens, UniProt Q07912)
[27] = target: Epidermal growth factor receptor (Homo sapiens, UniProt P00533, L858R)
[28] = target: Ephrin type-A receptor 6 (Homo sapiens, UniProt Q9UF33)
[29] = target: Ephrin type-B receptor 4 (Homo sapiens, UniProt P54760)
[30] = target: Tyrosine-protein kinase FRK (Homo sapiens, UniProt P42685)
[31] = target: Muscle, skeletal receptor tyrosine-protein kinase (Homo sapiens, UniProt O15146)
[32] = target: High affinity nerve growth factor receptor (Homo sapiens, UniProt P04629)
[33] = target: BDNF/NT-3 growth factors receptor (Homo sapiens, UniProt Q16620)
[34] = target: Tyrosine-protein kinase receptor TYRO3 (Homo sapiens, UniProt Q06418)
[35] = tested on: NCI-H2228-Luc; details: dose 30 mg/kg; route po; time 90 day
[36] = in vivo; details: NOD.CB17-Prkdcscid/J, mouse, tumour, po, 10 mg/kg

T1 sequence (Q9UM73 19-1620 limits assumed): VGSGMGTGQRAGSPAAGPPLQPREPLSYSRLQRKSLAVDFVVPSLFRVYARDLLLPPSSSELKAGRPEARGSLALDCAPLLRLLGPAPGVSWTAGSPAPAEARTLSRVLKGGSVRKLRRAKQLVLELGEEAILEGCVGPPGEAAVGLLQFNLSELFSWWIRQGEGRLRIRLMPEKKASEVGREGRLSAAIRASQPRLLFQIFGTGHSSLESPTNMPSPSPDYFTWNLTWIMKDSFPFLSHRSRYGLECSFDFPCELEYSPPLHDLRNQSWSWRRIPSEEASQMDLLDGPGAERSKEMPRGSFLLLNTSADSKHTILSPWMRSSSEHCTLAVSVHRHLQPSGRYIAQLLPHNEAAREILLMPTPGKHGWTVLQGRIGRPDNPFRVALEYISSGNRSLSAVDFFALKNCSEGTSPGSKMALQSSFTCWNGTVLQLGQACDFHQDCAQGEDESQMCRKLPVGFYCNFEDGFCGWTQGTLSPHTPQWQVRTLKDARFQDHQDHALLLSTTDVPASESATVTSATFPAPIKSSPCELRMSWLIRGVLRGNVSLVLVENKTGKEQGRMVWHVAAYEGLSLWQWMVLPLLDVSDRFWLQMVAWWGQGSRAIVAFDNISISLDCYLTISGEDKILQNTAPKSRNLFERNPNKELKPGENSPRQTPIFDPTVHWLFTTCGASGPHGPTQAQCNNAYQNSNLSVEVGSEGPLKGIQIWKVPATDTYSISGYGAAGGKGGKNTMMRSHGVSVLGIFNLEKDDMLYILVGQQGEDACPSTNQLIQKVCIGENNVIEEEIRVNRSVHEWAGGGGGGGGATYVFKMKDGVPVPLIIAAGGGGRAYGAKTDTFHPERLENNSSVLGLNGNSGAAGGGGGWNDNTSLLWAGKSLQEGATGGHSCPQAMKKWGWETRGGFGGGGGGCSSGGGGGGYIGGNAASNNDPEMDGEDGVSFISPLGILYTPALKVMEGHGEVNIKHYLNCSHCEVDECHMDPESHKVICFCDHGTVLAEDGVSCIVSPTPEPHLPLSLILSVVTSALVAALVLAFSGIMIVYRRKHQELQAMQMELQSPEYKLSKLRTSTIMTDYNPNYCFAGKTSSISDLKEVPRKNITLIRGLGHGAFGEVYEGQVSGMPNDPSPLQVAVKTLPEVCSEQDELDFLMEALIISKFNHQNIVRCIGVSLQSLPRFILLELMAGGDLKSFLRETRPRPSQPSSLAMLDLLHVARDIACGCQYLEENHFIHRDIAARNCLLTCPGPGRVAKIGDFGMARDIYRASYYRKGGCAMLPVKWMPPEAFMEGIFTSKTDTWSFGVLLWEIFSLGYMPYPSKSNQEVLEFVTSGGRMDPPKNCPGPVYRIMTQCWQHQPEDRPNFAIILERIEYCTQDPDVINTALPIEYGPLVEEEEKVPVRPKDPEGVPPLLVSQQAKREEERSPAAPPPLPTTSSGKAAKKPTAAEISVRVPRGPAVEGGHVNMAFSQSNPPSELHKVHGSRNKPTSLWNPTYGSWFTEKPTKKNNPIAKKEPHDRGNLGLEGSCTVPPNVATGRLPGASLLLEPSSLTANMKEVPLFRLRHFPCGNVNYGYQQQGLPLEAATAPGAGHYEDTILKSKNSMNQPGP
Hepatocyte growth factor receptor, sequence (P08581 whole entry, the tested form may be a part): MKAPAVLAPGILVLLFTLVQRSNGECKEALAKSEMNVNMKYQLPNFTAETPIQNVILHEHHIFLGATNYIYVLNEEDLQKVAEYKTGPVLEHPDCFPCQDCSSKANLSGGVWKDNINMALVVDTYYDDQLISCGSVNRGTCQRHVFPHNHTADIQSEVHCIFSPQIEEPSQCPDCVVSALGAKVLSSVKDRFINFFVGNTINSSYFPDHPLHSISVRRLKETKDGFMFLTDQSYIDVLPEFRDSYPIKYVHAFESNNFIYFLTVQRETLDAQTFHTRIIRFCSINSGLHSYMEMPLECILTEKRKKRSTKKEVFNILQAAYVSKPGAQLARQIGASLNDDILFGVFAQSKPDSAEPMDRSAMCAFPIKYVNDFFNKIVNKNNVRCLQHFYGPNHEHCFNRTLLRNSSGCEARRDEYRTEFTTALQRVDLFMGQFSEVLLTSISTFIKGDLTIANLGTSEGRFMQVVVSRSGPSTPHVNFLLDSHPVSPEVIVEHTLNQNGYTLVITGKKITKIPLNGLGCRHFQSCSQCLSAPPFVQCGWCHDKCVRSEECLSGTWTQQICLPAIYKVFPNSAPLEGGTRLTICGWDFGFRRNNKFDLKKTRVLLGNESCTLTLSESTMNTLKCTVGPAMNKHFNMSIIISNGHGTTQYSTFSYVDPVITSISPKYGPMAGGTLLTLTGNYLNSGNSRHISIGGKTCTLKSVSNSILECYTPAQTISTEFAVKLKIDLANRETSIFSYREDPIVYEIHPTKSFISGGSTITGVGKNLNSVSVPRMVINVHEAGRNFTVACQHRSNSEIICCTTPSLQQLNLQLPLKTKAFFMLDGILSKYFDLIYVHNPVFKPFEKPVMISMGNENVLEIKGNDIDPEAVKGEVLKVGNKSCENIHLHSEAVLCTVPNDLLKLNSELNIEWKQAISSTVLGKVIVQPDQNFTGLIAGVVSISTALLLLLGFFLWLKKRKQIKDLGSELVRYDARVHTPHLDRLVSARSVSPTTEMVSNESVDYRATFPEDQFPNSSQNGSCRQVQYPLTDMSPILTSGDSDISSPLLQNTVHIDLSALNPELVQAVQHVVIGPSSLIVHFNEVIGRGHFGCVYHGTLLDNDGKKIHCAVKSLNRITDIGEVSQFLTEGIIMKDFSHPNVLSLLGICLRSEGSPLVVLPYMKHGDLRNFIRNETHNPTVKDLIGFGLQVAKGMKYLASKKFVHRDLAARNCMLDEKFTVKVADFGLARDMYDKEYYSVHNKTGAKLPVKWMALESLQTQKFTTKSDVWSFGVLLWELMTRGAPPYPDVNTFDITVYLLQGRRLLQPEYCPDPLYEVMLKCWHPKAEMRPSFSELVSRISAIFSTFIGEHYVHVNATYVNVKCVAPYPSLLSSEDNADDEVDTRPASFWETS
Ephrin type-A receptor 6, sequence (Q9UF33 whole entry): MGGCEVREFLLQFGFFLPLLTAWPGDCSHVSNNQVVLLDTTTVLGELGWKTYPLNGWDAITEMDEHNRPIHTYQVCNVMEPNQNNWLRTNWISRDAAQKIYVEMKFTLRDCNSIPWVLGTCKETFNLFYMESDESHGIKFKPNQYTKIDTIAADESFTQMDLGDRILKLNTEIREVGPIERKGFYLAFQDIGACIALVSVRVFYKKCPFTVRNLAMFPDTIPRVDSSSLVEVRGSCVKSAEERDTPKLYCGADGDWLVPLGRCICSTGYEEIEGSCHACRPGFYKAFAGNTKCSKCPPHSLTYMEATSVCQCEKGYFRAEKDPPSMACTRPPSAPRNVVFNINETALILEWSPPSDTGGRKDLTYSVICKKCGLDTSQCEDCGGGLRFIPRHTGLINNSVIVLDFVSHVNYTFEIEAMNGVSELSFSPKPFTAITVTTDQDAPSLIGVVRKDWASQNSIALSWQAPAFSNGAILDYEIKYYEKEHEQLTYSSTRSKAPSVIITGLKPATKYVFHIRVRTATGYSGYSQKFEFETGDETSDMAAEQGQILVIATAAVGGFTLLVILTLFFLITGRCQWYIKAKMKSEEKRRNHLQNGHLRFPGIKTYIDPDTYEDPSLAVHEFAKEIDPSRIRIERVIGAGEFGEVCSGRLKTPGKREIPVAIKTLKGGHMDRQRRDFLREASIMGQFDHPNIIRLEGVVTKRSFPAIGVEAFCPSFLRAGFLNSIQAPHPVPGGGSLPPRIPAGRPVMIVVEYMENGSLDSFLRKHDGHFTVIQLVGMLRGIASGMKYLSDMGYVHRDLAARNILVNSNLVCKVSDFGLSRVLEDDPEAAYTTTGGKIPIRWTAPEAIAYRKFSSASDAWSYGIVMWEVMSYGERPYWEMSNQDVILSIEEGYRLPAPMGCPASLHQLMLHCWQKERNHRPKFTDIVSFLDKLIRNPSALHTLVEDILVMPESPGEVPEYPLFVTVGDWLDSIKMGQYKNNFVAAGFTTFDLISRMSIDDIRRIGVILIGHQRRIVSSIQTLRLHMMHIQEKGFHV
Tyrosine-protein kinase FRK, sequence (P42685 whole entry): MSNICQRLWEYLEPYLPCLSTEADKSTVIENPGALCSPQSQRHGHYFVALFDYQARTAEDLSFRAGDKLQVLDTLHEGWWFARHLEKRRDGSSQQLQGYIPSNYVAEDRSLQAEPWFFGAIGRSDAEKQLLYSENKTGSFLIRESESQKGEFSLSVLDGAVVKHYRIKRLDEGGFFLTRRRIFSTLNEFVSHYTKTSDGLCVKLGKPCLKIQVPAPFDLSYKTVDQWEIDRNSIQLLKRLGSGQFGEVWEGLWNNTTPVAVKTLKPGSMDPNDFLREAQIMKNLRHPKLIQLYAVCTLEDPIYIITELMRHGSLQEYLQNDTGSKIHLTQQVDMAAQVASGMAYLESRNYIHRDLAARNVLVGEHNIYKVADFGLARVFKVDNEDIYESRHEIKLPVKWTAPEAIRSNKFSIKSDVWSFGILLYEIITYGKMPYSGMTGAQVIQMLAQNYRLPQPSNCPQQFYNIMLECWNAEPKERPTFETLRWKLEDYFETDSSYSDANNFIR
ALK tyrosine kinase receptor (Homo sapiens, UniProt Q9UM73, R1275Q), sequence (Q9UM73 19-1620 R1275Q limits assumed): as the sequence (Q9UM73 19-1620 limits assumed) above, with R1257Q counted along it

COc1cc(N2CCC(N3CCN(C)CC3)CC2)ccc1Nc1ncnc(Nc2ccccc2S(=O)(=O)C(C)C)n1 [ASP-3026] showed an IC50 [1] of 64.8 nM, an Activity [2] of 37% and an Activity [3] of 9%. The Activity [4] was 120%, the Activity [5] was 52% and the IC50 [6] was 5.4 nM. The IC50 [7] was 6.8 nM, the IC50 [8] was over 1000 nM and the Activity [9] was 78%. For the same compound, the Activity [10] was “Non-Toxic”, the Cmax [11] was 44.3 ng/mL and the Cmax [12] was 140 ng/mL. It also gave a Tmax [13] of 4 h, a Tmax [14] of 4 h and a Tmax [15] of 4 h. For the same compound, the AUC at 120 h [16] was 5990 ng·h/mL, the Cmax [17] was 8990 ng/g and the Tmax [18] was 4 h. For the same compound, the AUC [19] was 34400 ng·h/g, the Kp at 120 h [20] was 19 and the Kp at 120 h [21] was 18. For the same compound, the Activity [22] was “Non-Toxic”, the MST [23] was 79 days and the IC50 [24] was 10 nM. The “Ratio IC50” value [25] was 3.2, the IC50 [26] was 5.8 nM and the IC50 [27] was 86 nM. For the same compound, the IC50 [28] was over 1000 nM, the IC50 [29] was over 1000 nM and the IC50 [30] was 40 nM. The IC50 [31] was over 100 nM, the IC50 [32] was over 1000 nM and the IC50 [33] was over 1000 nM. The IC50 [34] was over 1000 nM, the MST [35] was over 90 days and the Kp at 120 h [36] was 20.
